According to patent publication US20170304286A1 (LAUNX BIOMEDICAL CO., LTD., priority 2014, published 2017):
Several values for one entry are separate records, joined by “and”; a condition that tells them apart may be missing. Identical values can stand only once. Like-named read-outs stand apart in the source and are kept apart here.

What was measured:
[1] = tested on: HeLa (CervixAdenocarcinoma); assay: WST-1 cell viability, cervical cancer cell line HeLa; assay type: cell-based; conditions: Homo sapiens, 72 h
Description: (§1) The cell numbers were counted and reseed as 2×10^6 in culture plate/flask. Then, the culture medium were added to a volume of 10 ml, and the cells were cultured for 2-3 days. Then, the cells were suspended for loading into 96-well plates. The number of cells was 3000 and the volume of the culture medium was 100 μl each well.
(§2) Removing the original culture medium from 96-well plate. Then add 100 μl of commercially drug at a concentration of 10 μM per well. After 72 hours, add the diluted WST-1 reagent to the well with 100 μl/well, and the diluted WST-1 reagent was acquired from the dilution of 9:1 medium and WST-1 stock reagent. Finally, the total volume of each well was 200 μl/well. Culture the 96-well plate at 37° C. for 30 to 90 minutes. Detecting and calculate the survival rate of each cancer cells with an ELISA reader at OD450 nm.

[2] = tested on: C-33A (Cervical carcinoma); assay: WST-1 cell viability, cervical cancer cell line C-33A; assay type: cell-based; conditions: Homo sapiens, 72 h
Description: as §1, §2

LNCap = assay: WST-1 cell viability, prostate cancer cell line LNCap; assay type: cell-based; conditions: Homo sapiens, 72 h
Description: as §1, §2

[3] = tested on: MKN-45 (Gastric Adenocarcinoma); assay: WST-1 cell viability, gastric cancer cell line MKN-45; assay type: cell-based; conditions: Homo sapiens
Description: as §1, §2

[4] = tested on: LoVo(Colorectal Adenocarcinoma); assay: WST-1 cell viability, colorectal cancer cell line LoVo; assay type: cell-based; conditions: Homo sapiens, 72 h
Description: as §1, §2

AsPC-1 = assay: WST-1 cell viability, pancreatic cancer cell line AsPC-1; assay type: cell-based; conditions: Homo sapiens
Description: as §1, §2

[5] = tested on: BCC (basal cell carcinoma); assay: WST-1 cell viability, skin cancer cell line BCC; assay type: cell-based; conditions: 72 h
Description: as §1, §2

bladder cancer cells = assay: Summary of cell viability, bladder cancer; assay type: cell-based; conditions: 72 h, read-out: Inhibitory effect
Description: as §2

breast cancer cells = assay: Summary of cell viability, breast cancer; assay type: cell-based; conditions: 72 h, read-out: Inhibitory effect
Description: as §2

hepatic cancer cells = assay: Summary of cell viability, hepatic cancer; assay type: cell-based; conditions: 72 h, read-out: Inhibitory effect
Description: as §2

colorectal cancer cells = assay: Summary of cell viability, colorectal cancer; assay type: cell-based; conditions: 72 h, read-out: Inhibitory effect
Description: as §2

pancreatic cancer cells = assay: Summary of cell viability, pancreatic cancer; assay type: cell-based; conditions: 72 h, read-out: Inhibitory effect
Description: as §2

[6] = tested on: gastric cancer cells (AGS); assay: Animal model test of gastric cancer, tumor size; assay type: in vivo, mice
Description: In this invention, the female mice were (BALB/cAnN.Cg-Foxn1^nu/CrlNarl) purchased from National Laboratory Animal Center (Taiwan). The weight of the mice were 21±1 g. These mice were subcutaneously injected with gastric cancer cells (AGS) and then put these mice into different cage sat random. The drug test experiment was divided into three groups, include “control group”, “low dose group (100 mg/kg/day)”, and “high dose group (200 mg/kg/day)”. These mice were then injected test drug intraperitoneally once daily […]. The tumor sizes and body weight were measured twice a week. The tumor sizes were measured and calculated by formula: (L×W^2)/2. L represents the tumor longest length. W represents the tumor shortest diameter.

[7] = Animal model test of gastric cancer, body weight and survival of mice; assay type: in vivo; conditions: for weight: mice A, B, C
Description: In this invention, the female mice were (BALB/cAnN.Cg-Foxn1^nu/CrlNarl) purchased from National Laboratory Animal Center (Taiwan). The weight of the mice were 21±1 g. These mice were subcutaneously injected with gastric cancer cells (AGS) and then put these mice into different cage sat random. The drug test experiment was divided into three groups, include “control group”, “low dose group (100 mg/kg/day)”, and “high dose group (200 mg/kg/day)”. These mice were then injected test drug intraperitoneally once daily until the tumor size reached 100 mm^3. The tumor sizes and body weight were measured twice a week. The tumor sizes were measured and calculated by formula: (L×W^2)/2. L represents the tumor longest length. W represents the tumor shortest diameter.

[8] = average of 4 tests, read-out: survival rate (inhibition effect), Average
[9] = run 0524-10 min, read-out: survival rate (inhibition effect)
[10] = run 0526-10 min, read-out: survival rate (inhibition effect)
[11] = run 0529-10 min, read-out: survival rate (inhibition effect)
[12] = run 0531-10 min, read-out: survival rate (inhibition effect)
[13] = 100 mg/kg/day i.p., Fifth measurement
[14] = 100 mg/kg/day i.p., Fifth measurement, mice A, B, C
[15] = 100 mg/kg/day i.p., First measurement
[16] = 100 mg/kg/day i.p., First measurement, mice A, B, C
[17] = 100 mg/kg/day i.p., Fourth measurement
[18] = 100 mg/kg/day i.p., Fourth measurement, mice A, B, C
[19] = 100 mg/kg/day i.p., Second measurement
[20] = 100 mg/kg/day i.p., Second measurement, mice A, B, C
[21] = 100 mg/kg/day i.p., Third measurement
[22] = 100 mg/kg/day i.p., Third measurement, mice A, B, C
[23] = 200 mg/kg/day i.p., Fifth measurement
[24] = 200 mg/kg/day i.p., Fifth measurement, mice A, B, C
[25] = 200 mg/kg/day i.p., First measurement
[26] = 200 mg/kg/day i.p., First measurement, mice A, B, C
[27] = 200 mg/kg/day i.p., Fourth measurement
[28] = 200 mg/kg/day i.p., Fourth measurement, mice A, B, C
[29] = 200 mg/kg/day i.p., Second measurement
[30] = 200 mg/kg/day i.p., Second measurement, mice A, B, C
[31] = 200 mg/kg/day i.p., Third measurement
[32] = both low dose and high dose, FIG. 2

Fc1ccc([C@@H]2CCNC[C@H]2COc2ccc3c(c2)OCO3)cc1 [Paroxetine]
viability at 10 µM [1, 8]: 63.8%
viability at 10 µM [1, 9]: 52.6%
viability at 10 µM [1, 10]: 78.3%
viability at 10 µM [1, 11]: 51%
viability at 10 µM [1, 12]: 73.4%
viability at 10 µM [2, 8]: 33.2%
viability at 10 µM [2, 9]: 33.2%
viability at 10 µM [2, 10]: 32.1%
viability at 10 µM [2, 11]: 31.7%
viability at 10 µM [2, 12]: 35.8%
viability at 10 µM (LNCap; [8]): 71.7%
viability at 10 µM (LNCap; run LNCap-1-10 min, read-out: survival rate (inhibition effect)): 65.9%
viability at 10 µM (LNCap; run LNCap-2-20 min, read-out: survival rate (inhibition effect)): 61.7%
viability at 10 µM (LNCap; run LNCap-3-20 min, read-out: survival rate (inhibition effect)): 80.9%
viability at 10 µM (LNCap; run LNCap-4-20 min, read-out: survival rate (inhibition effect)): 78.3%
viability at 10 µM ([3]; MKN-45, 72 h, MKN-45, average of 4 tests, read-out: survival rate (inhibition effect), Average): 40.5%
viability at 10 µM ([3]; MKN-45, MKN-45, 72 h, run 0510-10 min, read-out: survival rate (inhibition effect)): 36.2%
viability at 10 µM ([3]; MKN-45, MKN-45, 72 h, run 0512-10 min, read-out: survival rate (inhibition effect)): 52%
viability at 10 µM ([3]; MKN-45, MKN-45, 72 h, run 0515-10 min, read-out: survival rate (inhibition effect)): 37.8%
viability at 10 µM ([3]; MKN-45, MKN-45, 72 h, run 0517-10 min, read-out: survival rate (inhibition effect)): 36%
viability at 10 µM [4, 8]: 58%
viability at 10 µM ([4]; run 0616-10 min, read-out: survival rate (inhibition effect)): 54.1%
viability at 10 µM ([4]; run 0619-10 min, read-out: survival rate (inhibition effect)): 51.5%
viability at 10 µM ([4]; run 0621-10 min, read-out: survival rate (inhibition effect)): 77.3%
viability at 10 µM ([4]; run 0623-10 min, read-out: survival rate (inhibition effect)): 48.9%
viability at 10 µM (AsPC-1; ASPC1, 72 h, AsPC-1, average of 4 tests, read-out: survival rate (inhibition effect), Average): 77%
viability at 10 µM (AsPC-1; ASPC1, AsPC-1, 72 h, run 1-4-30 min, read-out: survival rate (inhibition effect)): 72.5%
viability at 10 µM (AsPC-1; ASPC1, AsPC-1, 72 h, run 1-7-3-30 min, read-out: survival rate (inhibition effect)): 78.8%
viability at 10 µM (AsPC-1; ASPC1, AsPC-1, 72 h, run 1-7-4-30 min, read-out: survival rate (inhibition effect)): 87.3%
viability at 10 µM (AsPC-1; ASPC1, AsPC-1, 72 h, run 1-7-7-30 min, read-out: survival rate (inhibition effect)): 69.3%
viability at 10 µM [5, 8]: 58.2%
viability at 10 µM ([5]; run 0602-30 min, read-out: survival rate (inhibition effect)): 42.1%
viability at 10 µM ([5]; run 0605-10 min, read-out: survival rate (inhibition effect)): 52.6%
viability at 10 µM ([5]; run 0607-10 min, read-out: survival rate (inhibition effect)): 41.1%
viability at 10 µM ([5]; run 0609-10 min, read-out: survival rate (inhibition effect)): 97%
viability at 10 µM (bladder cancer cells): 69.1%
viability at 10 µM (breast cancer cells): 46.5%
viability at 10 µM (hepatic cancer cells): 60.1%
viability at 10 µM (colorectal cancer cells): 43.2%
viability at 10 µM (pancreatic cancer cells): 77.4%
Tumor volume growth, average [6, 13]: −8.333 mm3
volume, average [6, 13]: 63.333 mm3
longest length [6, 14]: 6 mm and 4 mm
width [6, 14]: 6 mm and 5 mm and 4 mm
Tumor volume growth, average [6, 15]: 113.1667 mm3
volume, average [6, 15]: 113.1667 mm3
Tumor volume growth [6, 16]: 87.5 mm3 and 144 mm3 and 108 mm3
longest length [6, 16]: 7 mm and 8 mm and 6 mm
volume [6, 16]: 87.5 mm3 and 144 mm3 and 108 mm3
width [6, 16]: 5 mm and 6 mm
Tumor volume growth, average [6, 17]: −18.167 mm3
volume, average [6, 17]: 71.667 mm3
longest length [6, 18]: 6 mm and 4 mm
width [6, 18]: 6 mm and 4 mm and 5 mm
Tumor volume growth, average [6, 19]: −4.167 mm3
volume, average [6, 19]: 109 mm3
longest length [6, 20]: 6 mm and 7 mm
volume [6, 20]: 75 mm3 and 126 mm3
width [6, 20]: 5 mm and 6 mm
Tumor volume growth, average [6, 21]: −19.167 mm3
volume, average [6, 21]: 89.833 mm3
longest length [6, 22]: 7 mm
width [6, 22]: 6 mm and 4 mm and 5 mm
Tumor volume growth, average [6, 23]: 0 mm3
volume, average [6, 23]: 0 mm3
Tumor volume growth [6, 24]: 0 mm3
longest length [6, 24]: 0 mm
volume [6, 24]: 0 mm3
width [6, 24]: 0 mm
Tumor volume growth, average [6, 25]: 78.5 mm3
volume, average [6, 25]: 78.5 mm3
longest length [6, 26]: 6 mm and 8 mm and 7 mm
width [6, 26]: 4 mm and 5 mm
Tumor volume growth, average [6, 27]: −13.33 mm3
volume, average [6, 27]: 0 mm3
longest length [6, 28]: 0 mm
volume [6, 28]: 0 mm3
width [6, 28]: 0 mm
Tumor volume growth, average [6, 29]: −25.8333 mm3
volume, average [6, 29]: 52.67 mm3
longest length [6, 30]: 6 mm and 5 mm and 7 mm
width [6, 30]: 4 mm and 3 mm and 5 mm
Tumor volume growth, average [6, 31]: −39.33 mm3
volume, average [6, 31]: 13.333 mm3
inhibition effect on tumor cells [6, 32]: significant inhibition effect
Tumor volume growth ([6]; both low dose and high dose, FIG. 3): effectively slow down the tumor volume growth
inhibition of tumor growth, high doses compared with low ([6]; high doses, FIG. 3): better effect to inhibit tumor growth
weight [7, 13]: 22 g and 20 g
weight [7, 15]: 19 g and 18 g
weight [7, 17]: 22 g and 20 g
weight [7, 19]: 19 g and 21 g and 20 g
weight [7, 21]: 20.5 g and 23.5 g and 19 g
weight [7, 23]: 21 g and 20 g
weight [7, 25]: 19 g and 18.5 g and 20 g
weight [7, 27]: 20 g and 21 g
weight [7, 29]: 20 g and 23 g
weight [7, 31]: 19 g and 18.5 g
health status / death of tested mice during the treatment ([7]; both high and low doses): without death
weight of mice during the experiment [7, 32]: did not show a significant decrease
